Source: the supplement of paper PMC13380429

Columns and labels:
Conditions in all cases: 72 h
Caco-2 [1] = assay: relative viability EC50 (midpoint between 100% and the lowest measured viability); higher = less toxic
Vero E6 [2] = assay: as above
Calu-3 [3] = assay: as above
HepG2 [4] = assay: as above
Caco-2 [5] = assay: drug sensitivity score (DSS) for viability; higher = more toxic; extreme values may be limits of the assay
Vero E6 [6] = assay: as above
Calu-3 [7] = assay: as above
HepG2 [8] = assay: as above
Caco-2 [9] = assay: cell viability relative to DMSO; higher = less toxic
Vero E6 [10] = assay: as above
Calu-3 [11] = assay: as above
HepG2 [12] = assay: as above
U2OS [13] = assay: relative viability EC50 (midpoint between 100% and the lowest measured viability); higher = less toxic
U2OS [14] = assay: drug sensitivity score (DSS) for viability; higher = more toxic; extreme values may be limits of the assay
U2OS [15] = assay: cell viability relative to DMSO; higher = less toxic

Row | SMILES | relative viability EC50 (Caco-2 [1]) | relative viability EC50 (Vero E6 [2]) | relative viability EC50 (Calu-3 [3]) | relative viability EC50 (HepG2 [4]) | drug sensitivity score (Caco-2 [5]) | drug sensitivity score (Vero E6 [6]) | drug sensitivity score (Calu-3 [7]) | drug sensitivity score (HepG2 [8]) | cell viability (Caco-2 [9]; 1 nM) | cell viability (Caco-2 [9]; 10 nM) | cell viability (Caco-2 [9]; 100 nM) | cell viability (Caco-2 [9]; 1000 nM) | cell viability (Caco-2 [9]; 10000 nM) | cell viability (Vero E6 [10]; 1 nM) | cell viability (Vero E6 [10]; 10 nM) | cell viability (Vero E6 [10]; 100 nM) | cell viability (Vero E6 [10]; 1000 nM) | cell viability (Vero E6 [10]; 10000 nM) | cell viability (Calu-3 [11]; 1 nM) | cell viability (Calu-3 [11]; 10 nM) | cell viability (Calu-3 [11]; 100 nM) | cell viability (Calu-3 [11]; 1000 nM) | cell viability (Calu-3 [11]; 10000 nM) | cell viability (HepG2 [12]; 1 nM) | cell viability (HepG2 [12]; 10 nM) | cell viability (HepG2 [12]; 100 nM) | cell viability (HepG2 [12]; 1000 nM) | cell viability (HepG2 [12]; 10000 nM) | relative viability EC50 (U2OS [13]) | drug sensitivity score (U2OS [14]) | cell viability (U2OS [15]; 1 nM) | cell viability (U2OS [15]; 10 nM) | cell viability (U2OS [15]; 100 nM) | cell viability (U2OS [15]; 1000 nM) | cell viability (U2OS [15]; 10000 nM)
1 | CC1=C(/C=C/C(=C/C=C/C(C)=C/C(=O)O)c2ccc(C)cc2)C(C)(C)CCC1 | > 10 µM | > 10 µM | > 10 µM | > 10 µM | 0 | 0 | 0 | 0 | 90.9% | 94.2% | 95.4% | 98.4% | 97.1% | 99.1% | 95.2% | 101% | 97.2% | 108% | 94.6% | 106% | 112% | 102% | 99.3% | 106% | 103% | 98.2% | 94.2% | 98.4% | – | – | – | – | – | – | –
2 | CCCCCCNC(=O)Nc1ccc(S(=O)(=O)Nc2ccc(CCNC[C@H](O)COc3ccc(O)cc3)cc2)cc1 | > 10 µM | > 10 µM | > 10 µM | > 10 µM | 0 | 0 | 0 | 0 | 102% | 82.7% | 102% | 102% | 104% | 92.7% | 95.8% | 91% | 96.2% | 110% | 105% | 96.8% | 93.5% | 102% | 88.3% | 95.6% | 110% | 92.1% | 103% | 107% | > 10 µM | 0 | 106% | 96.6% | 101% | 99.9% | 103%
3 | CCOc1ccn(-c2ccc(F)cc2)c(=O)c1C(=O)Nc1ccc(Oc2ccnc(N)c2Cl)c(F)c1 | > 10 µM | > 10 µM | > 10 µM | – | 0.8 | 0.6 | 0 | 1.9 | 101% | 90.4% | 90.3% | 103% | 75.1% | 103% | 99.1% | 101% | 98.8% | 81.5% | 93.5% | 103% | 101% | 96.1% | 94% | 110% | 116% | 108% | 96.9% | 68.5% | > 10 µM | 0 | 102% | 98.4% | 103% | 99.2% | 98%
4 | CN(C(=O)CN1C(=O)COc2cc(Cl)c(Cl)cc21)[C@@H](CN1CCCC1)c1ccc(-c2cccc(C(N)=O)c2)cc1 | 2.94 µM | 2.94 µM | 3.79 µM | 3.09 µM | 5.5 | 5.8 | 4.3 | 5.1 | 97.9% | 99% | 101% | 97.1% | 7.2% | 96.9% | 97% | 94.9% | 97.1% | 2.8% | 109% | 111% | 102% | 114% | 7% | 95% | 104% | 91.5% | 99% | 10.5% | 2.68 µM | 6.2 | 100% | 97.1% | 104% | 94.1% | 3.5%
5 | COC1(C2=NCCN2)COc2ccccc2O1 (configuration not stated) | > 10 µM | > 10 µM | > 10 µM | > 10 µM | 0 | 0 | 0 | 0 | 99.5% | 91.5% | 101% | 89.7% | 91.4% | 103% | 96% | 93.3% | 100% | 98.2% | 100% | 103% | 96% | 93% | 94.6% | 109% | 109% | 91.2% | 107% | 99.3% | > 10 µM | 0 | 96.2% | 95.1% | 103% | 97.9% | 101%
6 | COc1ccc2[nH]c(C(=O)c3ccccc3)cc2c1 | 0.0765 µM | 0.178 µM | – | 0.338 µM | 14.9 | 15.3 | 6.8 | 12.4 | 95% | 108% | 62.1% | 55.4% | 43.2% | 95.1% | 97.9% | 79.6% | 30.5% | 26.6% | 107% | 104% | 89.3% | 67.8% | 56.2% | 99.2% | 92.7% | 94.8% | 36.4% | 29.6% | 0.383 µM | 12.7 | 96.5% | 99.9% | 91.5% | 37.3% | 23.3%
7 | COc1cccc(Nc2ncnn3ccc(CN4CC[C@@H](N)[C@H](O)C4)c23)c1 | 0.335 µM | 0.292 µM | 0.0837 µM | > 10 µM | 7.5 | 14.4 | 21.9 | 0.1 | 89.2% | 91% | 81.2% | 76.1% | 48.6% | 100% | 89.4% | 65.7% | 51.4% | 14.8% | 103% | 94.4% | 46.5% | 23.7% | 9.1% | 105% | 102% | 102% | 99% | 87.9% | – | 3.5 | 96.2% | 96.5% | 93.2% | 92.6% | 55.7%
8 | Cc1c(C)c(NCC(=O)N(C)C2CCN(Cc3ccc(C(N)=O)cc3)CC2)c(C)c(C)c1N | > 10 µM | > 10 µM | > 10 µM | > 10 µM | 0 | 0 | 0 | 0 | 98.7% | 99.6% | 92.7% | 96.6% | 112% | 96.1% | 97.7% | 92.4% | 101% | 105% | 105% | 91% | 101% | 104% | 103% | 97.5% | 100% | 101% | 102% | 96.7% | > 10 µM | 0 | 100% | 97% | 102% | 99.2% | 98.1%
9 | Nc1ncc(Cc2ccc(Br)cc2)s1 | > 10 µM | > 10 µM | > 10 µM | > 10 µM | 0 | 0 | 0 | 0 | 97.3% | 95.1% | 85.2% | 99.3% | 96.7% | 99.9% | 94% | 100% | 92.2% | 107% | 95.6% | 91.8% | 103% | 94.3% | 119% | 98% | 88.6% | 115% | 96.3% | 99.9% | > 10 µM | 0 | 93.5% | 102% | 94.9% | 101% | 102%
10 | O=C(Nc1ccccc1)N[C@H]1C[C@H](C(=O)O)Nc2cc(Cl)cc(Cl)c21 | > 10 µM | > 10 µM | > 10 µM | > 10 µM | 0 | 0 | 0 | 0 | 98.1% | 104% | 104% | 104% | 92.5% | 106% | 100% | 100% | 96.7% | 99.8% | 105% | 89.8% | 108% | 95.8% | 97.1% | 96.4% | 103% | 96.3% | 84.6% | 104% | > 10 µM | 0 | 98% | 104% | 103% | 105% | 100%
11 | OC(CCCN1CCN(c2ncc(F)cn2)CC1)c1ccc(F)cc1 (configuration not stated) | > 10 µM | > 10 µM | > 10 µM | > 10 µM | 0 | 0 | 0 | 0 | 98.4% | 99.1% | 101% | 94.2% | 95.7% | 101% | 98.1% | 94.9% | 99% | 95.4% | 107% | 99.7% | 102% | 104% | 94.7% | 95.8% | 100% | 98.3% | 96% | 97.5% | – | – | – | – | – | – | –
12 | C[C@@H](CN(C)C)CN1c2ccccc2Sc2ccccc21 (racemic) [alimemazine] | > 10 µM | > 10 µM | > 10 µM | – | 0.3 | 1.9 | 0.2 | 1 | 112% | 100% | 97.8% | 108% | 80.4% | 100% | 98.1% | 99.4% | 88.9% | 77.2% | 97.5% | 94.8% | 101% | 105% | 83.4% | 105% | 101% | 104% | 104% | 70.9% | > 10 µM | 0 | 103% | 95% | 103% | 97% | 94.3%
13 | CC(C)(C)n1nc(-c2cccc3ccccc23)c2c(N)ncnc21 [1-naphthyl-PP1] | > 10 µM | > 10 µM | – | > 10 µM | 0.1 | 0.4 | 1.1 | 0.2 | 104% | 93.1% | 98.6% | 101% | 86.1% | 107% | 99% | 103% | 110% | 78.6% | 91.6% | 104% | 98.4% | 100% | 73% | 115% | 115% | 95.6% | 105% | 82.8% | > 10 µM | 1.7 | 100% | 96.4% | 109% | 94.4% | 75.6%
14 | O=c1cc[nH]c(=S)[nH]1 [2-thiouracil] | > 10 µM | > 10 µM | > 10 µM | – | 0 | 0 | 0 | – | 111% | 85.8% | 97.1% | 99% | 102% | 108% | 98.6% | 99.5% | 108% | 93.8% | 102% | 110% | 95.2% | 95.7% | 100% | – | – | – | – | – | > 10 µM | 0 | 98.5% | 96.4% | 99.7% | 97.5% | 98.6%
15 | Cc1cc(C)c(S(=O)(=O)n2cc(C)cc2C)c(C)c1 [HJC-0350] | > 10 µM | > 10 µM | > 10 µM | – | 0 | 0 | 0 | – | 95.5% | 98.2% | 93.6% | 96.6% | 93.2% | 97.5% | 99.5% | 98.6% | 95.5% | 96.2% | 93.7% | 99.4% | 92.9% | 103% | 96.5% | – | – | – | – | – | > 10 µM | 0 | 97.4% | 98.2% | 102% | 106% | 93.4%
